# Measurements taken from patent US9783524B2, “Protein tyrosine kinase modulators and methods of use” (BETTA PHARMACEUTICALS CO., LTD., priority 2013, dated 2017).
# Where two headings read alike, the source gives them in different places.
# Key:
# ALK (h) = format: biochemical, human; conditions: 0.1 μM test compound, 10 μM ATP; remaining activity relative to DMSO control = 100%
# Procedure: (§1) Assay conditions included 10 μM ATP and 100 nM test compounds.
# (§2) All reactions are initiated by the addition of the MgATP mix. After incubation for 40 minutes at room temperature, the reaction is stopped by the addition of 3% phosphoric acid solution. 10 μL of the reaction is then spotted onto a P30 filtermat and washed three times for 5 minutes in 75 mM phosphoric acid and once in methanol prior to drying and scintillation counting. This assay is performed by Millipore. The experiment is carried out in duplicate. The value for the control sample (DMSO) was set to 100%, and the values for the compound-treated samples were expressed as activity relative to the control sample.
# EGFR (h) = format: biochemical, human
# Procedure: as §1
# (§3) All reactions are initiated by the addition of the MgATP mix. After incubation for 40 minutes at room temperature, the reaction is stopped by the addition of 3% phosphoric acid solution. 10 μL of the reaction is then spotted onto a P30 filtermat and washed three times for 5 minutes in 75 mM phosphoric acid and once in methanol prior to drying and scintillation counting. […] The experiment is carried out in duplicate. The value for the control sample (DMSO) was set to 100%, and the values for the compound-treated samples were expressed as activity relative to the control sample.
# (§4) (specific activity approx. 500 cpm/pmol, concentration as required) and 0.1 μM test compound.
# EGFR (T790M) (h) = format: biochemical, human
# Procedure: as §1, §2
# [1] = test system: H1975 (EGFR L858R/T790M) NSCLC cells; assay: Cell proliferation assay (MTS cell viability); format: cell-based; conditions: Homo sapiens, NCI-H1975, 72 h, 3 days of exposure
# Procedure: (§5) Effects of test compounds on in vitro proliferation were measured by MTS cell viability assay.
# (§6) Prepare test compounds in each well with a final medium volume of 200 μl;
# Incubate for 3 days of exposure;
# (§7) Prepare reagents following the instructions in the Cell Proliferation Assay kit (Promega);
# (§8) Change to serum-free medium with a final volume of 100 μl/well. Prepare a set of wells with medium only for background subtraction;
# (§9) Add 20 μl MTS solution containing PMS to each well (final concentration of MTS will be 0.33 mg/ml);
# (§10) Incubate 1 to 4 hours at 37° C. in a humidified, 5% CO2 atmosphere.
# (§11) Record absorbance at 490 nm using VICTOR™X5 plate reader (PerkinElmer).
# (§12) All experimental points were set up in three wells and all experiments were repeated at least three times.
# [2] = test system: HCC827 (EGFR Del) NSCLC cells; assay: Cell proliferation assay (MTS cell viability); format: cell-based; conditions: Homo sapiens, 72 h, 3 days of exposure
# Procedure: as §5, §6
# Incubate for 3 days of exposure;
# as §7, §8, §9, §10, §11, §12
# [3] = test system: A549 (EGFR WT) NSCLC cells; assay: Cell proliferation assay (MTS cell viability); format: cell-based; conditions: Homo sapiens, 72 h, 3 days of exposure
# Procedure: as §5
# A549 cells were maintained in Ham's F12K medium (Gibco) supplemented with 10% FBS, 100 units/mL penicillin, 100 units/mL streptomycin, and 2 mM glutamine.
# as §6
# Incubate for 3 days of exposure;
# as §7, §8, §9, §10, §11, §12
# A431 (EGFR WT) cells = assay: Cell proliferation assay (MTS cell viability); format: cell-based; conditions: Homo sapiens, A-431, 72 h, 3 days of exposure
# Procedure: as §5
# A431 cells were maintained in DMEM (Gibco) supplemented with 10% FBS, 100 units/mL penicillin, 100 units/mL streptomycin, and 2 mM glutamine.
# 2. Prepare test compounds in each well with a final medium volume of 200 μl;
# 3. Incubate for 3 days of exposure;
# 4. Prepare reagents following the instructions in the Cell Proliferation Assay kit (Promega);
# 5. Change to serum-free medium with a final volume of 100 μl/well. Prepare a set of wells with medium only for background subtraction;
# 6. Add 20 μl MTS solution containing PMS to each well (final concentration of MTS will be 0.33 mg/ml);
# 7. Incubate 1 to 4 hours at 37° C. in a humidified, 5% CO2 atmosphere.
# 8. Record absorbance at 490 nm using VICTOR™X5 plate reader (PerkinElmer).
# as §12
# EGFR (L858R) (h) = format: biochemical, human
# Procedure: as §1, §3, §4
# EGFR (T790M, L858R) (h) = format: biochemical, human
# Procedure: as §1, §3, §4
# [4] = test system: activated and resistant T790M forms of EGFR; assay: In vitro cellular assays, overall statement; format: cell-based; conditions: result in words
# Procedure: as §5
# lung cancer = conditions: all lung cancer patients, not selected for mutant EGFR; cited from earlier work
# [5] = 0.1 μM test compound, 10 μM ATP, remaining activity relative to DMSO control = 100%
smiles,measurement,setting,value
"C=CC(=O)Nc1cc(Nc2ncc(Cl)c(Nc3ccccc3C(=O)C(=O)N(C)C)n2)c(OC)cc1N1CCN(C)CC1 [Example 74, N-(5-(5-chloro-4-(2-(2-(dimethylamino)-2-oxoacetyl)phenylamino)pyrimidin-2-ylamino)-4-methoxy-2-(4-methylpiperazin-1-yl)phenyl)acrylamide]",Activity (control) % ALK (h),ALK (h),9%
same,Activity (control) % EGFR (h),EGFR (h),110%
same,Activity (control) % EGFR (T790M) (h),EGFR (T790M) (h),62%
same,IC50,[1],50 nM
same,IC50,[2],30 nM
same,IC50,[3],620 nM
same,IC50,A431 (EGFR WT) cells,50 nM
"C=C(CN1CCOCC1)C(=O)Nc1cccc(Nc2ncc(Cl)c(Nc3ccccc3C(=O)C(=O)N(C)C)n2)c1 [Example 112, N-(3-(5-chloro-4-(2-(2-(dimethylamino)-2-oxoacetyl)phenylamino)pyrimidin-2-ylamino)phenyl)-2-(morpholinomethyl)acrylamide]",Activity (control) % ALK (h),ALK (h),21%
same,Activity (control) % EGFR (h),EGFR (h); [5],85%
same,Activity (control) % EGFR (L858R) (h),EGFR (L858R) (h); [5],66%
same,Activity (control) % EGFR (T790M) (h),EGFR (T790M) (h); [5],14%
same,"Activity (control) % EGFR (T790M, L858R) (h)","EGFR (T790M, L858R) (h); [5]",1%
same,activity against both activated and resistant T790M forms of EGFR in vitro cellular assays,[4],potent activity
"COc1cc(Nc2ncc(Cl)c(Nc3ccccc3C(=O)C(=O)N(C)C)n2)ccc1N1CCC(N(C)C)CC1 [Example 118, 2-(2-(5-chloro-2-(4-(4-(dimethylamino)piperidin-1-yl)-3-methoxyphenylamino)pyrimidin-4-ylamino)phenyl)-N,N-dimethyl-2-oxoacetamide]",Activity (control) % ALK (h),ALK (h),3%
same,Activity (control) % EGFR (h),EGFR (h),82%
same,Activity (control) % EGFR (L858R) (h),EGFR (L858R) (h),29%
same,Activity (control) % EGFR (T790M) (h),EGFR (T790M) (h),18%
same,"Activity (control) % EGFR (T790M, L858R) (h)","EGFR (T790M, L858R) (h)",2%
same,activity against both activated and resistant T790M forms of EGFR in vitro cellular assays,[4],potent activity
C#Cc1cccc(Nc2ncnc3cc(OCCOC)c(OCCOC)cc23)c1 [erlotinib],likelihood of tumor shrinkage (response rate),lung cancer,8-10%
same,median time to tumor progression,lung cancer,approximately 2 months
